# Values quoted from earlier work, collected in patent US8822870B2, “Dielectric insulation medium” (ABB Technology Ltd., priority 2010, dated 2014).
compound,measurement,value
"O=C(C(F)(F)C(F)(F)F)C(F)(C(F)(F)F)C(F)(F)F [C6-ketone, 1,1,1,2,4,4,5,5,5-Nonafluoro-2-(trifluoromethyl)pentan-3-one]",LC50 4 hours,"about 100,000 ppm"
